Read-outs that look alike come from different tables or passages of the source.
Tests used:
[1] = test system: Boophilus microplus (SP-resistant Parkhurst strain); assay: Test with Boophilus microplus resistant (SP-resistant Parkhurst strain), injection; assay type: in vivo; details: injected, checked after 7 days; for activity (no oviposition of fertile eggs): 0.16 μg active compound per animal; for kill (activity: no oviposition of fertile eggs): 0.8 μg active compound per animal
Experimental: Test With Boophilus Microplus Resistant (SP-Resistant Parkhurst Strain)
20 mg of active compound are dissolved in 1 ml of dimethyl sulphoxide, more dilute concentrations are prepared by dilution in the same solvent.
The test is carried out in 5 replications. 1 μl of the solutions is injected into the abdomen, and the animals are transferred into dishes and kept in a climatized room. After 7 days, the activity is checked by examination for oviposition of fertile eggs. Eggs whose fertility is not visible from the outside are stored in glass tubes in a controlled-environment cabinet until the larvae have hatched. An activity of 100% means that no tick has produced any fertile eggs.

[2] = logP by HPLC (EEC Directive 79/831 Annex V.A8, gradient method); assay type: physicochemical; details: for chromatographic logP: pH 2.3; for logP (pH 2): HPLC, acetonitrile/0.1% aqueous phosphoric acid
[3] = test system: Meloidogyne incognita; assay: Meloidogyne test (gall formation on lettuce roots); assay type: in vivo; details: 20 ppm active compound, after 14 days
Experimental: To produce a suitable preparation of active compound, 1 part by weight of active compound is mixed with the stated amounts of solvent and emulsifier, and the concentrate is diluted with water to the desired concentration.
Containers are filled with sand, solution of active compound, Meloidogyne incognita egg/larvae suspension and lettuce seeds. The lettuce seeds germinate and the plants develop. On the roots, galls are formed.
After the desired period of time, the nematicidal action is determined in % using gall formation as a measure. 100% means that no galls were found; 0% means that the number of galls on the treated plants corresponds to that of the untreated control.

[4] = test system: larvae of the mustard beetle (Phaedon cochleariae); assay: Phaedon larvae test (cabbage leaf dip); assay type: in vivo; details: active compound concentration 0.1%, after 7 days
Experimental: (§1) To produce a suitable preparation of active compound, 1 part by weight of active compound is mixed with the stated amounts of solvent and emulsifier, and the concentrate is diluted with emulsifier-containing water to the desired concentration.
After the desired period of time, the kill in % is determined. 100% means that all beetle larvae have been killed; 0% means that none of the beetle larvae have been killed.

[5] = test system: Ctenocephalides felis, strain "Georgi"; assay: Test with cat fleas/oral uptake; assay type: in vivo; details: 100 ppm in citrated cattle blood, after 28 h
Experimental: Test With Cat Fleas/Oral Uptake
To produce a suitable formulation, a suitable solution of active compound is prepared from 20 mg of active compound and 1 ml of DMSO. 15 μl of this formulation are added to 3 ml of citrated cattle blood and stirred.
10 unfed adult fleas (Ctenocephalides felis, strain “Georgi”) are placed into a chamber (Ø3.2 cm) whose top and bottom are closed with gauze. A metal cylinder whose underside is covered with parafilm is placed onto the chamber. The cylinder contains 3 ml of blood/active compound formulation which can be taken up by the fleas through the parafilm membrane. Whereas the blood is warmed to 37° C., the temperature in the area of the flea chambers is adjusted to 25° C. Controls are mixed with the same volume of DMSO, without addition of a compound. The determinations are carried out in triplicate.
After 28 h, the mortality in % (=dead fleas) is determined.
Compounds which effect an at least 25% kill of the fleas within 28 h are judged to be effective.

[6] = test system: greenhouse red spider mite (Tetranychus urticae); assay: Tetranychus test (OP-resistant/dip treatment); assay type: in vivo; details: active compound concentration 0.1%, after 7 days
Experimental: Tetranychus Test (OP-Resistant/Dip Treatment)
as §1
Bean plants (Phaseolus vulgaris) which are heavily infested by all stages of the greenhouse red spider mite (Tetranychus urticae) are dipped into a preparation of active compound of the desired concentration.
After the desired period of time, the effect in % is determined. 100% means that all spider mites have been killed; 0% means that none of the spider mites have been killed.

[7] = test system: peach aphid (Myzus persicae); assay: Myzus test (cabbage leaf dip); assay type: in vivo; details: active compound concentration 0.1%, after 6 days
Experimental: as §1
Cabbage leaves (Brassica oleracea) which are heavily infested by the peach aphid (Myzus persicae) are treated by being dipped into the preparation of active compound of the desired concentration.
After the desired period of time, the kill in % is determined. 100% means that all aphids have been killed; 0% means that none of the aphids have been killed.

[8] = test system: Lucilia cuprina larvae; assay: Blowfly larvae test (development-inhibitory action); assay type: in vivo; details: 100 ppm active compound
Experimental: Blowfly Larvae Test (Development-Inhibitory Action)
20 mg of active compound are dissolved in 1 ml of dimethyl sulphoxide, more dilute concentrations are prepared by dilution with distilled water.
About 20 Lucilia cuprina larvae are introduced into a test tube which contains about 1 cm^3 of horse meat and 0.5 ml of the preparation of active compound to be tested. After 24 hours and 48 hours, the efficacy of the preparation of active compound is determined. The test tubes are transferred into a beaker whose bottom is covered with sand. After a further 2 days, the test tubes are removed and the pupae are counted.
The efficacy of the preparation of active compound is assessed by the number of flies that have hatched after 1.5 times the period of development of an untreated control. 100% means that no flies have hatched; 0% means that all flies have hatched normally.

| SMILES | activity (no oviposition of fertile eggs) [1] [%] | nematicidal action (activity, gall formation as a measure) [3] [%] | logP (pH 2) [2] | further results |
| --- | --- | --- | --- | --- |
| [O-][S+](CCCCC(F)=C(F)F)c1nc(-c2ccccc2)cs1 (stereo not shown) [Example 2, 4-phenyl-2-(6,6,5-trifluorohex-5-enylsulphinyl)-1,3-thiazole] | 100 | – | – | chromatographic logP ([2]; read-out: logP (pH 2.3)): 3.47 |
| FC(F)=C(F)CCCCSc1nc(-c2ccccc2)c(-c2ccccc2)o1 [Example 7] | – | 100 | 5.96 | – |
| FC(F)=C(F)CCCCSc1nc(Cl)c(Cl)s1 [Example 5] | – | 98 | 5.33 | kill (activity: no oviposition of fertile eggs) [1]: 100%; kill [4]: 100% |
| FC(F)=CCCCCSc1nc(Cl)c(C(F)(F)F)s1 [Example 12] | – | – | 5.62 | – |
| FC(F)=C(F)CCCCSc1nc(Cl)c(C(F)(F)F)s1 [Example 10] | – | – | 5.40 | – |
| FC(F)=CCCCCSc1nc(-c2ccccc2)cs1 [Example 4] | 100 | 100 | 5.38 | kill (activity: no oviposition of fertile eggs) [1]: 100%; kill (mortality) [5]: 100%; kill [6]: 98% |
| FC(F)=CCCCCSc1nc(Cl)c(Cl)s1 [Example 6] | – | 100 | 5.53 | kill [4]: 100%; kill [7]: 95%; kill [6]: 100% |
| FC(F)=CCCCCSc1nc(-c2ccccc2)c(-c2ccccc2)o1 [Example 8] | – | 100 | 6.14 | kill (activity: no oviposition of fertile eggs) [1]: 100%; kill [4]: 100%; kill [6]: 98%; kill (efficacy: flies not hatched) [8]: 100% |
| FC(F)=C(F)CCCCSc1nc(-c2ccccc2)cs1 [Example 1, 4-phenyl-2-(6,6,5-trifluorohex-5-enylthio)-1,3-thiazole] | 100 | 100 | – | chromatographic logP ([2]; read-out: logP (pH 2.3)): 5.21 |
| O=S(=O)(CCCCC(F)=C(F)F)c1nc(-c2ccccc2)cs1 [Example 3, 4-phenyl-2-(6,6,5-trifluorohex-5-enylsulphonyl)-1,3-thiazole] | 100 | – | – | chromatographic logP [2]: 3.67 |
| Cc1nc(SCCCCC(F)=C(F)F)sc1C [Example 11] | – | – | 4.20 | – |
| Cc1csc(SCCCCC(F)=C(F)F)n1 [Example 9] | – | – | 3.85 | – |

From patent US20040106658A1, “Heterocyclic fluoroalkenyl thioethers and the use thereof as pesticides(III)” (priority 2000, published 2004)
